Data set [1] addresses RelP from Staphylococcus aureus (SaRelP) (Staphylococcus aureus strain Newman). The data set can be described thus: crystal structure; apo SaRelP, 15 mg/ml, sitting drop at room temperature, 0.1 M CHES pH 9.5, 40% (v/v) PEG600; 2.25 Å; homotetramer.
In data set [2] the target is T1, BsRelQ (Bacillus subtilis, UniProt O31611, H111A).
T1 construct: gene yjbM; RelQ / SAS1, homotetramer
As to the kind of experiment: stimulation of ppGpp synthesis, HPLC. Type of data set: biochemical. As to conditions: allosteric activator, 200 µM; 5 mM ATP, 0.25 mM GDP/GTP, pH 7.5, 37 °C.

For data set [3], the target named is T2, BsRelQ (Bacillus subtilis, UniProt O31611, E113A).
T2 construct: gene yjbM; RelQ / SAS1, homotetramer
T2 sequence (O31611 whole entry E113A): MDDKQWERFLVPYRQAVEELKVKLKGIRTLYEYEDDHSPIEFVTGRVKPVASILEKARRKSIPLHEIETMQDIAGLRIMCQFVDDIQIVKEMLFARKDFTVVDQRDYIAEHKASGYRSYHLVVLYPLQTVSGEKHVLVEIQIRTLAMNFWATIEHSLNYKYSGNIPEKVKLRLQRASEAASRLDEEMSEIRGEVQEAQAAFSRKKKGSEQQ
The data set can be described thus: stimulation of ppGpp synthesis, HPLC. To be noted: allosteric activator, 200 µM; 5 mM ATP, 0.25 mM GDP/GTP, pH 7.5, 37 °C. Type of data set: biochemical.

The target of data set [4] is T3, BsRelQ (Bacillus subtilis, UniProt O31611, Q174A).
T3 construct: gene yjbM; RelQ / SAS1, homotetramer
T3 sequence (O31611 whole entry Q174A): as the sequence (O31611 whole entry E113A) above, with A113E, Q174A counted along it
The data set can be described thus: stimulation of ppGpp synthesis, HPLC. To be noted: allosteric activator, 200 µM; 5 mM ATP, 0.25 mM GDP/GTP, pH 7.5, 37 °C. Type of data set: biochemical.

Data set [5] concerns the target T4, BsRelQ (Bacillus subtilis, UniProt O31611).
T4 construct: gene yjbM; RelQ / SAS1, homotetramer
T4 sequence (O31611 1-211): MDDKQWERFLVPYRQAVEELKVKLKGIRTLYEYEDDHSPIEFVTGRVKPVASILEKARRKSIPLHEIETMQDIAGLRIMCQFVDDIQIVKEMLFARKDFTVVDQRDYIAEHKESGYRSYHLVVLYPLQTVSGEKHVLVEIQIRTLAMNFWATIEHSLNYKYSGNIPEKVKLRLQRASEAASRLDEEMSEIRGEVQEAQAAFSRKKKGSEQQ
As to the kind of experiment: stimulation of ppGpp synthesis, HPLC. As to conditions: allosteric activator, 0-250 µM; 5 mM ATP, pH 7.5, 20 mM MgCl2. Type of data set: biochemical.

For data set [6], the target named is T5, BsRelQ (Bacillus subtilis, UniProt O31611, E178A).
T5 construct: gene yjbM; RelQ / SAS1, homotetramer
T5 sequence (O31611 whole entry E178A): as the sequence (O31611 whole entry E113A) above, with A113E, E178A counted along it
As to the kind of experiment: stimulation of ppGpp synthesis, HPLC. Type of data set: biochemical. As to conditions: allosteric activator, 200 µM; 5 mM ATP, 0.25 mM GDP/GTP, pH 7.5, 37 °C.

For data set [7], the target named is T6, SaRelP (Staphylococcus aureus, UniProt W8U368).
T6 construct: gene ywaC; full length, N-terminal hexahistidine tag, pET24d(+), expressed in E. coli BL21(DE3), homotetramer
As to the kind of experiment: X-ray crystal structure. To be noted: active site (ATP site), Mg2+, 5 mM AMPCPP, non-hydrolysable ATP analogue. Type of data set: binding.

Data set [8] concerns the molecule itself. As to the kind of experiment: crystal structure; apo BsRelP, 10 mg/ml, sitting drop at room temperature, 0.1 M CHES pH 9.5, 30% (w/v) PEG 3000; 3.3 Å; homotetramer.

T1 sequence (O31611 whole entry H111A): as the sequence (O31611 whole entry E113A) above, with H111A, A113E counted along it

By stoichiometry N is commonly meant a count of units in the complex or per binding partner. In data set [1], “RelP from Staphylococcus aureus (SaRelP) (enzyme)” showed a stoichiometry N of 4.

With `Nc1nc2c(ncn2[C@@H]2O[C@H](COP(=O)(O)OP(=O)(O)OP(=O)(O)O)[C@@H](OP(=O)(O)OP(=O)(O)O)[C@H]2O)c(=O)[nH]1` [pppGpp], the “stimulation of ppGpp synthesis, HPLC” value was “Variation of His111 and Glu113 does not affect stimulation of BsRelQ” in data set [2]; “Variation of His111 and Glu113 does not affect stimulation of BsRelQ” in data set [3]; “upon replacement of Gln174 and Glu178 the pppGpp-stimulatory effect is decreased” in data set [4]; “determining the (p)ppGpp synthesis BsRelQ in presence of different concentrations of pppGpp” in data set [5]; “upon replacement of Gln174 and Glu178 the pppGpp-stimulatory effect is decreased” in data set [6].

In the case of `Nc1ncnc2c1ncn2[C@@H]1O[C@H](COP(=O)(O)CP(=O)(O)OP(=O)(O)O)[C@@H](O)[C@H]1O` [AMPCPP], the X-ray crystal structure entry in data set [7] is given as “solve the structure of SaRelP in presence of AMPCPP”.

B1: RelP from Bacillus subtilis (BsRelP) (enzyme, Bacillus subtilis PY79)
chain: MDLSVTHMDDLKTVMEDWKNELLVYKFALDALDTKFSIISQEYNLIHGHNPIEHTKSRVKSFESIVNKLMRKGCEITTKEMKEHIHDIAGVRIICSFISDIYNVVNVLKQHEDLRIVKVKDYIQTPKPNGYRSLHLIIEMPVNLTNRVEYVKAEIQIRTIAMDFWASLEHKIYYKLNNDVPKQLTDELKEAAEIAHYLDEKMLGIKKEVD
notes: RelP (SAS2, YwaC), small (p)ppGpp synthetase of Bacillus subtilis PY79, gene ywaC, amplified from genomic DNA; The strep-tag was encoded by the forward primer; cloned into pET24d(+) at NcoI/XhoI; No tag cleavage is described; also called SAS2; YwaC; source: E. coli BL21 (DE3), purified (StrepTrap, SEC)
On to B1, for which the “stoichiometry N” value in data set [8] is 4.

The values above are taken from paper PMC5794853 (Scientific Reports, 2018).
